Experimental data: patent publication US7728012B2, “Carboxamide compounds and their use as calpain inhibitors” (Abbott GmbH & Co. KG, priority 2006, dated 2010)
pKi: −log10 of the molar value.

Columns and labels:
Format in all cases: biochemical
[1] = molecular target: T1, calpain-I isolated from human erythrocytes (Homo sapiens, UniProt P07384); experiment: Calpain I kinetic fluorescence enzyme inhibition assay; conditions: apparent Ki from IC50 by Cheng-Prussoff; average of 2 to 4 dose-effect plots
T1 construct: calpain-I—isolated from human erythrocytes; purchased Calbiochem 208713; host or cells: human erythrocytes (tissue isolate)
T1 sequence (P07384 1-714): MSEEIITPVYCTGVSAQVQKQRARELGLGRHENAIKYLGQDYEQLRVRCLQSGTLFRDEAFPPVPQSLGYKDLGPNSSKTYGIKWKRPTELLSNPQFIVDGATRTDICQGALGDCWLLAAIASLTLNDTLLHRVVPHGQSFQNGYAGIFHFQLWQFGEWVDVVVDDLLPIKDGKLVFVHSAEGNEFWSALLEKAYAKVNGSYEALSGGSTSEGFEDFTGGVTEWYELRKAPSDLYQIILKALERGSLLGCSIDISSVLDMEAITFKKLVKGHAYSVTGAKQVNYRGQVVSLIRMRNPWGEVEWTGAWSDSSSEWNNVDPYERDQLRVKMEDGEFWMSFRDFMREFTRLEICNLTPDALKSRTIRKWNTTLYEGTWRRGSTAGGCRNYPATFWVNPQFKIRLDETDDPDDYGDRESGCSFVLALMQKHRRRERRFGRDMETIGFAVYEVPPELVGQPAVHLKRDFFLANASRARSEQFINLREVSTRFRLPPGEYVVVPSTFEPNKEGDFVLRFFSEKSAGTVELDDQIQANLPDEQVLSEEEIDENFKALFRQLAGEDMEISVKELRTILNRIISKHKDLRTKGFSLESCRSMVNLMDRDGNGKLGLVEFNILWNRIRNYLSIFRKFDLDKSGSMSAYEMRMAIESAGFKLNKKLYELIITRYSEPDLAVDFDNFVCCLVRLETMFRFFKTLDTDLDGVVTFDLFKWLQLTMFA
T1 sequence (P04632 1-268 partner): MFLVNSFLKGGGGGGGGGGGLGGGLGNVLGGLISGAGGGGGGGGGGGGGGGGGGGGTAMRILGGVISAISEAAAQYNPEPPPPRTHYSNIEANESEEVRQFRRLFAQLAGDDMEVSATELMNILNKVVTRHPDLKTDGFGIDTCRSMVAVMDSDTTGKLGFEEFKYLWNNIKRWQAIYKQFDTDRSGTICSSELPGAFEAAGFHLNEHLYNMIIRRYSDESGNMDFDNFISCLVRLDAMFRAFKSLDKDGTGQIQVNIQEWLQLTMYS

[2] = molecular target: T2, cathepsin K activated from recombinant human procathepsin K (Homo sapiens, UniProt P43235); experiment: Cathepsin K kinetic fluorescence enzyme inhibition assay; conditions: selectivity ratio versus calpain I
T2 construct: purchased Calbiochem 342001; host or cells: E. coli
T2 sequence (P43235 115-329): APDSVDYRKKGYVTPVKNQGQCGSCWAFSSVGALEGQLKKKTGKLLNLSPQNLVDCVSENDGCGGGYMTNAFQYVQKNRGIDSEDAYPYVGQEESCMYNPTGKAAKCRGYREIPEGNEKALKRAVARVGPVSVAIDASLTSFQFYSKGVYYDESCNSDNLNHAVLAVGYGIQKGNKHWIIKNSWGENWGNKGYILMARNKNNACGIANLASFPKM
Procedure: (§1) The following solutions and buffers were employed: • HBS (for 40 ml): 800 μl M HEPES; 2.16 ml 100 mM KCl; 4.8 ml 1M NaCl; 3.59 ml 5% glucose; 60 μl μM MgSO4; 400 μl 100 mM Na pyruvate, 28.19 ml water; pH 7.2-7.5. • lysis buffer (for 20 ml): 400 μl M Tris pH 8.2; 2.74 ml 1M NaCl; 520 μl 0.5M EDTA; 2 ml 10% triton X-100; 0.8 ml (=1:25) CompletePlus (1 tablet/2 ml H2O); 200 μl 100 mM Pefabloc; 13.34 ml water, pH 8.2. • TBST (10×) (for 1 l): 100 mM Tris (12.1 g); 1.5M NaCl (87 g); 1% Tween 20 (10 g), adjusted to pH 8. I Enzyme Inhibition In Vitro: • Testing for blockade of the corresponding enzymic activities was carried out by means of kinetic fluorescence assays (excitation 390 nm, emission 460 nm). • Apparent Ki values were calculated from the experimentally determined IC50 values by the Cheng-Prussoff relation assuming a reversible competitive enzyme inhibition. The Km values of the substrates used under the assay conditions indicated above were: 90 μM (Z-Phe-Arg-AMC, cathepsin B), 10 μM (Z-Gly-Pro-Arg-AMC, cathepsin K), 2 μM (Z-Phe-Arg-AMC, cathepsin L), and 30 μM (Z-Val-Val-Arg-AMC, cathepsin S). • The indicated Ki values are averages of the inhibition constants calculated on the basis of 2 to 4 independent dose-effect plots.
(§2) The following assays were used: • 1. Calpain I: • 20 nM calpain-I—isolated from human erythrocytes (Calbiochem #208713), 100 μM Suc-Leu-Tyr-AMC (Bachem #1-1355) as substrate in buffer with 62 mM imidazole, 0.3 mM CaCl2, 0.10% CHAPS, 0.05% BSA, 1 mM DTT at pH 7.3 and room temperature. • 2. Cathepsin B: • 0.25 nM cathepsin B—isolated from human liver (Calbiochem #219362), 100 μM Z-Phe-Arg-AMC (Bachem #I-1160) as substrate 50 mM MES, 2 mM EDTA, 0.05% Brij 35, 2.5 mM L-cysteine, pH 6.0, room temperature. • 3. Cathepsin K: • 3 nM cathepsin K—activated from recombinant human procathepsin K from E. coli (Calbiochem #342001), 10 μM Z-Gly-Pro-Arg-AMC (Biomol #P-142) as substrate in 50 mM MES, 2 mM EDTA, 0.05% Brij 35, 2.5 mM L-cysteine, pH 6.0, room temperature. • 4. Cathepsin L: • 1 nM cathepsin L—isolated from human liver (Calbiochem #219402), 2 μM Z-Phe-Arg-AMC (Bachem #1-1160) as substrate in 50 mM MES, 2 mM EDTA, 0.05% Brij 35, 2.5 mM L-cysteine, pH 6.0, room temperature. • 5. Cathepsin S: • 0.5 nM recombinant human cathepsin S from E. coli (Calbiochem #219343), 20 μM Z-Val-Val-Arg-AMC (Bachem #1-1540) as substrate in 50 mM MES, 2 mM EDTA, 0.05% Brij 35, 2.5 mM L-cysteine, pH 6.0, room temperature. • The results of the in vitro determination are indicated in Table 1. The following abbreviations are used in Table 1: • The “Calpain activity” column, ++ stands for a calpain Ki (Ki(calpain)) of ≦40 nM and + means: 40 nM<Ki(Calpain)≦100 nM. • The “Sel. cat. B” column indicates the Ki(cathepsin B)/Ki(calpain) ratio. In this connection, ++ means a Ki(cathepsin B)/Ki(calpain) ratio of ≧30 and + means 10≦Ki(cathepsin B)/Ki(calpain)<30. • The “Sel. cat. K” column indicates the Ki(cathepsin K)/Ki(calpain) ratio. In this connection, ++ means a Ki(cathepsin K)/Ki(calpain) ratio of ≧30 and + means 10≦Ki(cathepsin K)/Ki(calpain)<30. • The “Sel. cat. L” column indicates the Ki(cathepsin L)/Ki(calpain) ratio. In this connection, ++ means a Ki(cathepsin L)/Ki(calpain) ratio of ≧50 and + means 30≦Ki(cathepsin L)/Ki(calpain)<50. • The “Sel. cat. S” column indicates the Ki(cathepsin S)/Ki(calpain) ratio. In this connection, ++ means a Ki(cathepsin S)/Ki(calpain) ratio of ≧100 and + means 50≦Ki(cathepsin S)/Ki(calpain)<100.

[3] = molecular target: T3, cathepsin L isolated from human liver (Homo sapiens, UniProt P07711); experiment: Cathepsin L kinetic fluorescence enzyme inhibition assay; conditions: selectivity ratio versus calpain I
T3 construct: cathepsin L—isolated from human liver; purchased Calbiochem 219402; host or cells: human liver (tissue isolate)
T3 sequence (P07711 114-333): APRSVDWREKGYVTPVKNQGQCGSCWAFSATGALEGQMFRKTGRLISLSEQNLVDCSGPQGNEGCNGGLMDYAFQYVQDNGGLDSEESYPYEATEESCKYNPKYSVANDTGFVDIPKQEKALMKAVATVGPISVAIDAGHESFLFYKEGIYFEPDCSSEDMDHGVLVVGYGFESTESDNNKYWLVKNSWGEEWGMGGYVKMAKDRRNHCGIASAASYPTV
Summary of the method: (§3)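 Kinetic fluorescence (ex 390/em 460 nm) at room temperature in 50 mM MES, 2 mM EDTA, 0.05% Brij 35, 2.5 mM L-cysteine, pH 6.0. Cathepsin B (liver, 0.25 nM) with 100 μM Z-Phe-Arg-AMC; cathepsin L (liver, 1 nM) with 2 μM Z-Phe-Arg-AMC; recombinant E. coli cathepsin S (0.5 nM) with 20 μM Z-Val-Val-Arg-AMC. Ki via Cheng-Prusoff.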

[4] = molecular target: T4, recombinant human cathepsin S (Homo sapiens, UniProt P25774); experiment: Cathepsin S kinetic fluorescence enzyme inhibition assay; conditions: selectivity ratio versus calpain I
T4 construct: purchased Calbiochem 219343; host or cells: E. coli
T4 sequence (P25774 115-331): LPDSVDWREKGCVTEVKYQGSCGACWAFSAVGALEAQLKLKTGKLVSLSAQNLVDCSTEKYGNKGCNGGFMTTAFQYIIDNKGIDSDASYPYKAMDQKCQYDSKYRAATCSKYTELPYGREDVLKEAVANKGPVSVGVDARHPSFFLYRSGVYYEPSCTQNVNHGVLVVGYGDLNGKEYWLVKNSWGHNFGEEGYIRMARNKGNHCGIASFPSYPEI
Summary of the method: as §3

[5] = molecular target: T5, cathepsin B isolated from human liver (Homo sapiens, UniProt P07858); experiment: Cathepsin B kinetic fluorescence enzyme inhibition assay; conditions: selectivity ratio versus calpain I
T5 construct: cathepsin B—isolated from human liver; purchased Calbiochem 219362; host or cells: human liver (tissue isolate)
Procedure: as §1, §2

pKi [1]	Sel cat. K (Ki(cathepsin K)/Ki(calpain) ratio) [2]	Sel cat. B (Ki(cathepsin B)/Ki(calpain) ratio) [5]	Compound	Sel cat. L (Ki(cathepsin L)/Ki(calpain) ratio) [3]	Sel cat. S (Ki(cathepsin S)/Ki(calpain) ratio) [4]
≥ 7.40	+ (10≦Ki(cathepsin K)/Ki(calpain)<30)		Cl.NC(=O)C(=O)C(Cc1ccccc1)NC(=O)c1cccnc1-n1ccc(-c2ccc(N3CCOCC3)cc2)n1 (centres unmarked) [Example 29, N-(3-Amino-1-benzyl-2,3-dioxopropyl)-2-[3-(4-morpholin-4-ylphenyl)-1H-pyrazol-1-yl]nicotinamide hydrochloride]	++ (Ki(cathepsin L)/Ki(calpain) ratio of ≧50)	++ (Ki(cathepsin S)/Ki(calpain) ratio of ≧100)
≥ 7.40		+ (10≦Ki(cathepsin B)/Ki(calpain)<30)	NC(=O)C(=O)C(Cc1cccs1)NC(=O)c1cccnc1-n1ccc(-c2ccccc2)n1 (centres unmarked) [Example 40, N-[3-Amino-2,3-dioxo-1-(2-thienylmethyl)propyl]-2-(3-phenyl-1H-pyrazol-1-yl)pyridine-3-carboxamide]	++ (Ki(cathepsin L)/Ki(calpain) ratio of ≧50)	++ (Ki(cathepsin S)/Ki(calpain) ratio of ≧100)
7.00 to 7.40	+ (10≦Ki(cathepsin K)/Ki(calpain)<30)		CN1CCN(c2ccc(-c3ccn(-c4ncccc4C(=O)NC(Cc4ccccc4)C(=O)C(N)=O)n3)cc2)CC1 (centres unmarked) [Example 68, N-(3-Amino-1-benzyl-2,3-dioxopropyl)-2-{3-[4-(4-methylpiperazin-1-yl)phenyl]-1H-pyrazol-1-yl}nicotinamide]		++ (Ki(cathepsin S)/Ki(calpain) ratio of ≧100)
≥ 7.40		+ (10≦Ki(cathepsin B)/Ki(calpain)<30)	Cc1cn(-c2ncccc2C(=O)NC(Cc2ccccc2)C(=O)C(N)=O)nc1-c1ccccc1 (centres unmarked) [Example 84, N-(3-Amino-1-benzyl-2,3-dioxopropyl)-2-(4-methyl-3-phenyl-1H-pyrazol-1-yl)nicotinamide]	++ (Ki(cathepsin L)/Ki(calpain) ratio of ≧50)	++ (Ki(cathepsin S)/Ki(calpain) ratio of ≧100)
≥ 7.40		+ (10≦Ki(cathepsin B)/Ki(calpain)<30)	CC(C)c1ccc2c(c1)-c1nn(-c3ncccc3C(=O)NC(Cc3ccccc3)C(=O)C(N)=O)cc1CO2 (centres unmarked) [Example 144, N-[3-Amino-2,3-dioxo-1-(phenylmethyl)propyl]-2-[8-(1-methylethyl)chromeno[4,3-c]pyrazol-2(4H)-yl]pyridine-3-carboxamide]	++ (Ki(cathepsin L)/Ki(calpain) ratio of ≧50)	++ (Ki(cathepsin S)/Ki(calpain) ratio of ≧100)

Compound	pKi [1]	Sel cat. K (Ki(cathepsin K)/Ki(calpain) ratio) [2]	Sel cat. B (Ki(cathepsin B)/Ki(calpain) ratio) [5]	Sel cat. L (Ki(cathepsin L)/Ki(calpain) ratio) [3]	Sel cat. S (Ki(cathepsin S)/Ki(calpain) ratio) [4]
NC(=O)C(=O)C(Cc1ccc(Br)cc1)NC(=O)c1cccnc1-n1ccc(-c2ccccc2)n1 (centres unmarked) [Example 122, N-{3-Amino-1-[(4-bromophenyl)methyl]-2,3-dioxopropyl}-2-(3-phenyl-1H-pyrazol-1-yl)pyridine-3-carboxamide]	≥ 7.40		++ (Ki(cathepsin B)/Ki(calpain) ratio of ≧30)	++ (Ki(cathepsin L)/Ki(calpain) ratio of ≧50)	++ (Ki(cathepsin S)/Ki(calpain) ratio of ≧100)
N#Cc1cnc(-n2ccc(-c3ccccc3F)n2)c(C(=O)NC(Cc2ccccc2)C(=O)C(N)=O)c1 (centres unmarked) [Example 188, N-[3-Amino-2,3-dioxo-1-(phenylmethyl)propyl]-5-cyano-2-[3-(2-fluorophenyl)-1H-pyrazol-1-yl]pyridine-3-carboxamide]	7.00 to 7.40	++ (Ki(cathepsin K)/Ki(calpain) ratio of ≧30)		++ (Ki(cathepsin L)/Ki(calpain) ratio of ≧50)	
N-{3-Amino-1-[(4-fluorophenyl)methyl]-2,3-dioxopropyl}-2-[3-(2,3-dichlorophenyl)-1H-pyrazol-1-yl]pyridine-3-carboxamide [Example 161]			+ (10≦Ki(cathepsin B)/Ki(calpain)<30)	+ (30≦Ki(cathepsin L)/Ki(calpain)<50)	++ (Ki(cathepsin S)/Ki(calpain) ratio of ≧100)
